{"source": "PubChem BioAssay (NCI)", "assay_in_all_cases": "NCI anticancer screen, dose series, 48 h", "key": {"NCI-H23 lung": {"system": "NCI-H23 lung"}, "MALME-3M melanoma": {"system": "MALME-3M melanoma"}, "OVCAR-3 ovarian": {"system": "OVCAR-3 ovarian"}, "SF-295 CNS": {"system": "SF-295 CNS"}, "HCT-116 colon": {"system": "HCT-116 colon"}, "BT-549 breast": {"system": "BT-549 breast"}, "RPMI-8226 leukemia": {"system": "RPMI-8226 leukemia"}, "HL-60(TB) leukemia": {"system": "HL-60(TB) leukemia"}, "A549 NSCLC": {"system": "A549 NSCLC"}, "PC-3 prostate": {"system": "PC-3 prostate"}, "HCT-15 colon": {"system": "HCT-15 colon"}, "NCI-H226 lung": {"system": "NCI-H226 lung"}, "UO-31 renal": {"system": "UO-31 renal"}, "SR leukemia": {"system": "SR leukemia"}, "SK-MEL-5 melanoma": {"system": "SK-MEL-5 melanoma"}, "OVCAR-5 ovarian": {"system": "OVCAR-5 ovarian"}, "SNB-19 CNS": {"system": "SNB-19 CNS"}, "IGROV1 ovarian": {"system": "IGROV1 ovarian"}, "UACC-257 melanoma": {"system": "UACC-257 melanoma"}, "786-0 renal": {"system": "786-0 renal"}, "SF-268 CNS": {"system": "SF-268 CNS"}, "DU-145 prostate": {"system": "DU-145 prostate"}, "TK-10 renal": {"system": "TK-10 renal"}, "SK-MEL-2 melanoma": {"system": "SK-MEL-2 melanoma"}, "CAKI-1 renal": {"system": "CAKI-1 renal"}, "HT29 colon": {"system": "HT29 colon"}, "HOP-92 NSCLC": {"system": "HOP-92 NSCLC"}, "ACHN renal": {"system": "ACHN renal"}, "OVCAR-4 ovarian": {"system": "OVCAR-4 ovarian"}, "NCI/ADR-RES ovarian": {"system": "NCI/ADR-RES ovarian"}, "HCC-2998 colon": {"system": "HCC-2998 colon"}, "K-562 leukemia": {"system": "K-562 leukemia"}, "CCRF-CEM leukemia": {"system": "CCRF-CEM leukemia"}, "OVCAR-8 ovarian": {"system": "OVCAR-8 ovarian"}, "SF-539 CNS": {"system": "SF-539 CNS"}, "A498 renal": {"system": "A498 renal"}, "MOLT-4 leukemia": {"system": "MOLT-4 leukemia"}, "COLO 205 colon": {"system": "COLO 205 colon"}, "SNB-75 CNS": {"system": "SNB-75 CNS"}, "SN12C renal": {"system": "SN12C renal"}, "HS 578T breast": {"system": "HS 578T breast"}, "UACC-62 melanoma": {"system": "UACC-62 melanoma"}, "MCF7 breast": {"system": "MCF7 breast"}, "NCI-H522 lung": {"system": "NCI-H522 lung"}, "NCI-H460 lung": {"system": "NCI-H460 lung"}, "U251 CNS": {"system": "U251 CNS"}, "HOP-62 NSCLC": {"system": "HOP-62 NSCLC"}, "M14 melanoma": {"system": "M14 melanoma"}, "MDA-MB-231 breast": {"system": "MDA-MB-231 breast"}, "LOX IMVI melanoma": {"system": "LOX IMVI melanoma"}, "MDA-MB-435": {"system": "MDA-MB-435"}, "KM12 colon": {"system": "KM12 colon"}, "EKVX NSCLC": {"system": "EKVX NSCLC"}, "T-47D breast": {"system": "T-47D breast"}, "SK-MEL-28 melanoma": {"system": "SK-MEL-28 melanoma"}}, "note": "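Exposure lasted 48 hours, with cells grown in 96-well plates and compounds tested at five concentrations. TGI marks complete inhibition of growth.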", "data": [{"smiles": "COc1cccc(C2SCC(=O)N2c2ccc(-c3ccc(-n4c(-c5ccccc5)nc5ccccc5c4=O)cc3)cc2)c1OC", "note": "(stereo not given)", "values": [{"measurement": "TGI", "setting": "NCI-H23 lung", "value": "> 100", "unit": "µM"}, {"measurement": "TGI", "setting": "MALME-3M melanoma", "value": "> 100", "unit": "µM"}, {"measurement": "TGI", "setting": "OVCAR-3 ovarian", "value": "> 100", "unit": "µM"}, {"measurement": "TGI", "setting": "SF-295 CNS", "value": "> 100", "unit": "µM"}, {"measurement": "TGI", "setting": "HCT-116 colon", "value": "> 100", "unit": "µM"}, {"measurement": "TGI", "setting": "BT-549 breast", "value": "> 100", "unit": "µM"}, {"measurement": "TGI", "setting": "RPMI-8226 leukemia", "value": "> 100", "unit": "µM"}, {"measurement": "TGI", "setting": "HL-60(TB) leukemia", "value": "> 100", "unit": "µM"}, {"measurement": "TGI", "setting": "A549 NSCLC", "value": "> 100", "unit": "µM"}, {"measurement": "TGI", "setting": "PC-3 prostate", "value": "> 100", "unit": "µM"}, {"measurement": "TGI", "setting": "HCT-15 colon", "value": "> 100", "unit": "µM"}, {"measurement": "TGI", "setting": "NCI-H226 lung", "value": "> 100", "unit": "µM"}, {"measurement": "TGI", "setting": "UO-31 renal", "value": "> 100", "unit": "µM"}, {"measurement": "TGI", "setting": "SR leukemia", "value": "> 100", "unit": "µM"}, {"measurement": "TGI", "setting": "SK-MEL-5 melanoma", "value": "> 100", "unit": "µM"}, {"measurement": "TGI", "setting": "OVCAR-5 ovarian", "value": "> 100", "unit": "µM"}, {"measurement": "TGI", "setting": "SNB-19 CNS", "value": "> 100", "unit": "µM"}, {"measurement": "TGI", "setting": "IGROV1 ovarian", "value": "> 100", "unit": "µM"}, {"measurement": "TGI", "setting": "UACC-257 melanoma", "value": "> 100", "unit": "µM"}, {"measurement": "TGI", "setting": "786-0 renal", "value": "> 100", "unit": "µM"}, {"measurement": "TGI", "setting": "SF-268 CNS", "value": "> 100", "unit": "µM"}, {"measurement": "TGI", "setting": "DU-145 prostate", "value": "> 100", "unit": "µM"}, {"measurement": "TGI", "setting": "TK-10 renal", "value": "> 100", "unit": "µM"}, {"measurement": "TGI", "setting": "SK-MEL-2 melanoma", "value": "> 100", "unit": "µM"}, {"measurement": "TGI", "setting": "CAKI-1 renal", "value": "> 100", "unit": "µM"}, {"measurement": "TGI", "setting": "HT29 colon", "value": "> 100", "unit": "µM"}, {"measurement": "TGI", "setting": "HOP-92 NSCLC", "value": "> 100", "unit": "µM"}, {"measurement": "TGI", "setting": "ACHN renal", "value": "> 100", "unit": "µM"}, {"measurement": "TGI", "setting": "OVCAR-4 ovarian", "value": "> 100", "unit": "µM"}, {"measurement": "TGI", "setting": "NCI/ADR-RES ovarian", "value": "> 100", "unit": "µM"}, {"measurement": "TGI", "setting": "HCC-2998 colon", "value": "> 100", "unit": "µM"}, {"measurement": "TGI", "setting": "K-562 leukemia", "value": "> 100", "unit": "µM"}, {"measurement": "TGI", "setting": "CCRF-CEM leukemia", "value": "> 100", "unit": "µM"}, {"measurement": "TGI", "setting": "OVCAR-8 ovarian", "value": "> 100", "unit": "µM"}, {"measurement": "TGI", "setting": "SF-539 CNS", "value": "> 100", "unit": "µM"}, {"measurement": "TGI", "setting": "A498 renal", "value": "> 100", "unit": "µM"}, {"measurement": "TGI", "setting": "MOLT-4 leukemia", "value": "> 100", "unit": "µM"}, {"measurement": "TGI", "setting": "COLO 205 colon", "value": "> 100", "unit": "µM"}, {"measurement": "TGI", "setting": "SNB-75 CNS", "value": 89.1, "unit": "µM"}, {"measurement": "TGI", "setting": "SN12C renal", "value": "> 100", "unit": "µM"}, {"measurement": "TGI", "setting": "HS 578T breast", "value": "> 100", "unit": "µM"}, {"measurement": "TGI", "setting": "UACC-62 melanoma", "value": "> 100", "unit": "µM"}, {"measurement": "TGI", "setting": "MCF7 breast", "value": "> 100", "unit": "µM"}, {"measurement": "TGI", "setting": "NCI-H522 lung", "value": "> 100", "unit": "µM"}, {"measurement": "TGI", "setting": "NCI-H460 lung", "value": "> 100", "unit": "µM"}, {"measurement": "TGI", "setting": "U251 CNS", "value": "> 100", "unit": "µM"}, {"measurement": "TGI", "setting": "HOP-62 NSCLC", "value": "> 100", "unit": "µM"}, {"measurement": "TGI", "setting": "M14 melanoma", "value": "> 100", "unit": "µM"}, {"measurement": "TGI", "setting": "MDA-MB-231 breast", "value": "> 100", "unit": "µM"}, {"measurement": "TGI", "setting": "LOX IMVI melanoma", "value": "> 100", "unit": "µM"}, {"measurement": "TGI", "setting": "MDA-MB-435", "value": "> 100", "unit": "µM"}, {"measurement": "TGI", "setting": "KM12 colon", "value": "> 100", "unit": "µM"}, {"measurement": "TGI", "setting": "EKVX NSCLC", "value": "> 100", "unit": "µM"}, {"measurement": "TGI", "setting": "T-47D breast", "value": "> 100", "unit": "µM"}, {"measurement": "TGI", "setting": "SK-MEL-28 melanoma", "value": "> 100", "unit": "µM"}]}]}
